Source: patent publication US10040781B2, “Tank-binding kinase inhibitor compounds” (Gilead Sciences, Inc., priority 2014, dated 2018)

How the values were obtained:
[1] = target: hJAK2 (Homo sapiens (Human), UniProt O60674); experiment: hJAK2 LANCE TR-FRET enzymatic assay; type: biochemical; conditions: read-out: JAK2 IC50
[2] = target: IKKε (Homo sapiens (Human), UniProt Q14164); experiment: IKKε TR-FRET enzymatic assay; type: biochemical; conditions: read-out: IKKe IC50
[3] = target: TBK1 (Homo sapiens (Human), UniProt Q9UHD2); experiment: TBK1 TR-FRET enzymatic assay;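 further: phosphorylation of a biotinylated Ser/Thr peptide by purified full-length recombinant TBK1, read by TR-FRET after 240 min at 25 °C, IC50 is the geometric mean of at least four runs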
TBK1, sequence (Q9UHD2 whole entry): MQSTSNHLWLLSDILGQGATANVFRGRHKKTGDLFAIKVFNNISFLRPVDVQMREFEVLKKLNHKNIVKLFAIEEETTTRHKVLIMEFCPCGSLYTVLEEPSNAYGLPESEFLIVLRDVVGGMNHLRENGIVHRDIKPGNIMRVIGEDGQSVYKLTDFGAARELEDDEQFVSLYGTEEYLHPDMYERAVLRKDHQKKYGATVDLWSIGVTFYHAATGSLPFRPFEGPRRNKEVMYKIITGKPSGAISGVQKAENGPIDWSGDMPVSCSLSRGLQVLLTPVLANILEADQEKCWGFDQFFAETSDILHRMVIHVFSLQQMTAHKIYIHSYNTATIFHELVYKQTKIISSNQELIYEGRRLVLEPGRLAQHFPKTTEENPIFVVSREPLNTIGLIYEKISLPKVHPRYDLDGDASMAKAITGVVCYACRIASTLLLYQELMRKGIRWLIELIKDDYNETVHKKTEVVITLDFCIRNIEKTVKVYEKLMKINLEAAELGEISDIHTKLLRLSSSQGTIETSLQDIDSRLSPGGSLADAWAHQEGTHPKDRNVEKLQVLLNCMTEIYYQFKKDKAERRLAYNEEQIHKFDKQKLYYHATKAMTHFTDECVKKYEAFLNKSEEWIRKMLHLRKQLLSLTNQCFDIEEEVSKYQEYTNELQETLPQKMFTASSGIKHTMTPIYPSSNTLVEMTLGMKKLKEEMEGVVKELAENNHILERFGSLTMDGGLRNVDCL

IKKε, sequence (Q14164 whole entry): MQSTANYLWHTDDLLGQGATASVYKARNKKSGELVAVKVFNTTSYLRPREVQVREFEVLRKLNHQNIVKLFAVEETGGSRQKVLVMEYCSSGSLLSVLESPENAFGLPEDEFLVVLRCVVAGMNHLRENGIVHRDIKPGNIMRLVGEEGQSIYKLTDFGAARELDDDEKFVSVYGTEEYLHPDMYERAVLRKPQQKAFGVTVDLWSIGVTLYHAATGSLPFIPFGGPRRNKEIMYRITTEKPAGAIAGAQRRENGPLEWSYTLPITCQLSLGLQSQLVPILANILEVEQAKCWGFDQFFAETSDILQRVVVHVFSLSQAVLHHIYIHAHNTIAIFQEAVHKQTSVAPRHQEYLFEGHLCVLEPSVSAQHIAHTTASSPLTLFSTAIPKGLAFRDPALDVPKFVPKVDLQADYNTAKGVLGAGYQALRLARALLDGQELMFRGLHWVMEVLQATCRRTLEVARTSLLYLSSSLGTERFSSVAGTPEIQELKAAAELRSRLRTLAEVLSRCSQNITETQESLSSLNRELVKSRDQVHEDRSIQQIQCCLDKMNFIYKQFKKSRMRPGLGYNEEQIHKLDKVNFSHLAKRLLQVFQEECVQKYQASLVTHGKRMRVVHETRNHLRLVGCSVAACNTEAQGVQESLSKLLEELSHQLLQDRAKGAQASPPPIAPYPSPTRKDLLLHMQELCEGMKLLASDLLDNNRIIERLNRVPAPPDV
hJAK2, sequence (O60674 whole entry): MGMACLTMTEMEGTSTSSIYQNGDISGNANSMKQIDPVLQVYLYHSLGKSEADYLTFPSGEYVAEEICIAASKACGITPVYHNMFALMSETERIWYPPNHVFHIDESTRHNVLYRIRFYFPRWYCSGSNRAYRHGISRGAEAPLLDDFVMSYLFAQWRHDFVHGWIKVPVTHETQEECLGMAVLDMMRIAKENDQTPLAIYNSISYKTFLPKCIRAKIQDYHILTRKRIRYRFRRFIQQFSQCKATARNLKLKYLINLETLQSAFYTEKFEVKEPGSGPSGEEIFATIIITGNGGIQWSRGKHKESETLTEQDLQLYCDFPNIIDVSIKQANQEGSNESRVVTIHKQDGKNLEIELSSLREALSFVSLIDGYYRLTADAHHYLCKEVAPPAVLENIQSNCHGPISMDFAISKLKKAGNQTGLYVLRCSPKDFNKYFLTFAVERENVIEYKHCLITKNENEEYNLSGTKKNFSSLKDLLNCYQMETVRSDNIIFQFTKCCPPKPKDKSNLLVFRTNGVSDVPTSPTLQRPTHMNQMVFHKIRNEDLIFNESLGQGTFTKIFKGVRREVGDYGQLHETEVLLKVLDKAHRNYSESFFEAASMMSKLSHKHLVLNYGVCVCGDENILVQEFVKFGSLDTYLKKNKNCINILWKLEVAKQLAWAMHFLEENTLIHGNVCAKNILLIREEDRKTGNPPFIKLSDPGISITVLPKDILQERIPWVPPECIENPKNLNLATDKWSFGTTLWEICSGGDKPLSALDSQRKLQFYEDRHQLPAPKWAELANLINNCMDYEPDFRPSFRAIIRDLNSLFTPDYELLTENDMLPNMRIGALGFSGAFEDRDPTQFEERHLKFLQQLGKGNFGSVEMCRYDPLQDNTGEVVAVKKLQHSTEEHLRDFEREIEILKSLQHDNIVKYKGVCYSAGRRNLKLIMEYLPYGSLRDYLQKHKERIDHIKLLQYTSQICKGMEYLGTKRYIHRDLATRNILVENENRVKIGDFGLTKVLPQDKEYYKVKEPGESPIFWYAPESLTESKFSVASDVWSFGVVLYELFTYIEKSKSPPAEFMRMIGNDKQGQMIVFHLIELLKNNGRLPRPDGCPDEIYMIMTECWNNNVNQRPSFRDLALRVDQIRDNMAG

Row | Compound | IC50 [1] | IC50 [2] | IC50 [3]
1 | CN1CCN(c2ccc(Nc3ncnc(-c4ccc(O[C@@H]5CCN(C(=O)CO)C5)c(C#N)c4)n3)cc2)CC1 [Example 86, (R)-2-((1-(2-hydroxyacetyl)pyrrolidin-3-yl)oxy)-5-(4-((4-(4-methylpiperazin-1-yl)phenyl)amino)-1,3,5-triazin-2-yl)benzonitrile] | 459 nM | 4 nM | 8 nM
2 | N#Cc1cc(-c2ncnc(Nc3ccc(N4CCN(C5COC5)CC4)cc3)n2)ccc1F [Example 87, 2-Fluoro-5-(4-((4-(4-(oxetan-3-yl)piperazin-1-yl)phenyl)amino)-1,3,5-triazin-2-yl)benzonitrile] | > 1000 nM | > 1000 nM | 853 nM
3 | N#Cc1cc(-c2ncnc(Nc3ccc(N4CCN(C5COC5)CC4)cc3)n2)ccc1O[C@@H]1CCN(C(=O)CCO)C1 [Example 89, (R)-2-((1-(3-hydroxypropanoyl)pyrrolidin-3-yl)oxy)-5-(4-((4-(4-(oxetan-3-yl)piperazin-1-yl)phenyl)amino)-1,3,5-triazin-2-yl)benzonitrile] | 359 nM | 52 nM | 16 nM
4 | N#CCC(=O)N1CC[C@@H](Oc2ccc(-c3ncnc(Nc4ccc(N5CCN(C6COC6)CC5)cc4)n3)cc2C#N)C1 [Example 90, (R)-2-((1-(2-cyanoacetyl)pyrrolidin-3-yl)oxy)-5-(4-((4-(4-(oxetan-3-yl)piperazin-1-yl)phenyl)amino)-1,3,5-triazin-2-yl)benzonitrile] | 292 nM | 37 nM | 7 nM
5 | N#Cc1cc(-c2ncnc(Nc3ccc(N4CCN(C5COC5)CC4)cc3)n2)ccc1O[C@@H]1CCN(C(=O)C2COC2)C1 [Example 92, (R)-5-(4-((4-(4-(oxetan-3-yl)piperazin-1-yl)phenyl)amino)-1,3,5-triazin-2-yl)-2-((1-(oxetane-3-carbonyl)pyrrolidin-3-yl)oxy)benzonitrile] | > 1000 nM | 197 nM | 45 nM
6 | N#Cc1cc(-c2ncnc(Nc3ccc(N4CCN(C5COC5)CC4)cc3)n2)ccc1O[C@@H]1CCNC1 [Example 93, (R)-5-(4-((4-(4-(oxetan-3-yl)piperazin-1-yl)phenyl)amino)-1,3,5-triazin-2-yl)-2-(pyrrolidin-3-yloxy)benzonitrile] | 961 nM | 120 nM | 30 nM
7 | N#Cc1cc(-c2ncnc(Nc3ccc(N4CCN(C5COC5)CC4)cc3)n2)ccc1O[C@@H]1CCN(C(=O)C2(O)CC2)C1 [Example 94, (R)-2-((1-(1-hydroxycyclopropanecarbonyl)pyrrolidin-3-yl)oxy)-5-(4-((4-(4-(oxetan-3-yl)piperazin-1-yl)phenyl)amino)-1,3,5-triazin-2-yl)benzonitrile] | > 1000 nM | 367 nM | 173 nM
8 | N#Cc1cc(-c2ncnc(Nc3ccc(N4CCN(C5COC5)CC4)cc3)n2)ccc1O[C@@H]1CCN(C=O)C1 [Example 95, (R)-2-((1-formylpyrrolidin-3-yl)oxy)-5-(4-((4-(4-(oxetan-3-yl)piperazin-1-yl)phenyl)amino)-1,3,5-triazin-2-yl)benzonitrile] | 377 nM | 21 nM | 7 nM
9 | N#Cc1cc(-c2ncnc(Nc3ccc(N4CCN(C5COC5)CC4)cc3)n2)ccc1O[C@@H]1CCN(C(=O)C(F)F)C1 [Example 96, (R)-2-((1-(2,2-difluoroacetyl)pyrrolidin-3-yl)oxy)-5-(4-((4-(4-(oxetan-3-yl)piperazin-1-yl)phenyl)amino)-1,3,5-triazin-2-yl)benzonitrile] | 560 nM | 91 nM | 21 nM
10 | N#Cc1cc(-c2ncnc(Nc3ccc(N4CCN(C5COC5)CC4)cc3)n2)ccc1OC1CCCN(C(=O)CO)CC1 (stereo not drawn) [Example 97, 2-((1-(2-hydroxyacetyl)azepan-4-yl)oxy)-5-(4-((4-(4-(oxetan-3-yl)piperazin-1-yl)phenyl)amino)-1,3,5-triazin-2-yl)benzonitrile] | 241 nM | 22 nM | 11 nM
11 | N#Cc1cc(-c2ncnc(Nc3ccc(N4CCN(C5COC5)CC4)cc3)n2)ccc1OC1CN(C(=O)CO)CC1(F)F (stereo not drawn) [Example 98, 2-((4,4-difluoro-1-(2-hydroxyacetyl)pyrrolidin-3-yl)oxy)-5-(4-((4-(4-(oxetan-3-yl)piperazin-1-yl)phenyl)amino)-1,3,5-triazin-2-yl)benzonitrile] | 119 nM | 14 nM | 5 nM
12 | C[C@@H]1C[C@@H](Oc2ccc(-c3ncnc(Nc4ccc(N5CCN(C6COC6)CC5)cc4)n3)cc2C#N)CN1C(=O)CO [Example 99, 2-(((3R,5R)-1-(2-hydroxyacetyl)-5-methylpyrrolidin-3-yl)oxy)-5-(4-((4-(4-(oxetan-3-yl)piperazin-1-yl)phenyl)amino)-1,3,5-triazin-2-yl)benzonitrile] | 440 nM | 193 nM | 77 nM
13 | C[C@H]1C[C@@H](Oc2ccc(-c3ncnc(Nc4ccc(N5CCN(C6COC6)CC5)cc4)n3)cc2C#N)CN1C(=O)CO [Example 100, 2-(((3R,5S)-1-(2-hydroxyacetyl)-5-methylpyrrolidin-3-yl)oxy)-5-(4-((4-(4-(oxetan-3-yl)piperazin-1-yl)phenyl)amino)-1,3,5-triazin-2-yl)benzonitrile] | 525 nM | 249 nM | 121 nM
14 | N#Cc1cc(-c2ncnc(Nc3ccc(N4CCN(C5COC5)CC4)cc3)n2)ccc1O[C@H]1C[C@@H]2C[C@H]1N(C(=O)CO)C2 [Example 102, 2-(((1R,4S,6S)-2-(2-hydroxyacetyl)-2-azabicyclo[2.2.1]heptan-6-yl)oxy)-5-(4-((4-(4-(oxetan-3-yl)piperazin-1-yl)phenyl)amino)-1,3,5-triazin-2-yl)benzonitrile] | 380 nM | 24 nM | 11 nM
15 | N#Cc1cc(-c2ncnc(Nc3ccc(N4CCOCC4)cc3)n2)ccc1O[C@@H]1CCN(C(=O)CO)C1 [Example 103, (R)-2-((1-(2-hydroxyacetyl)pyrrolidin-3-yl)oxy)-5-(4-((4-morpholinophenyl)amino)-1,3,5-triazin-2-yl)benzonitrile] | 260 nM | 10 nM | 6 nM
16 | COc1ccc(-c2ncnc(Nc3ccc(N4CCN(C5COC5)CC4)cc3)n2)cc1C#N [Example 104, 2-methoxy-5-(4-((4-(4-(oxetan-3-yl)piperazin-1-yl)phenyl)amino)-1,3,5-triazin-2-yl)benzonitrile] | 328 nM | 215 nM | 42 nM
17 | COc1cc(C#N)cc(-c2ncnc(Nc3ccc(N4CCN(C5COC5)CC4)cc3)n2)c1 [Example 105, 3-methoxy-5-(4-((4-(4-(oxetan-3-yl)piperazin-1-yl)phenyl)amino)-1,3,5-triazin-2-yl)benzonitrile] | 212 nM | > 1000 nM | 79 nM
18 | N#Cc1cc(-c2ncnc(Nc3ccc(Cn4ccnc4)cc3)n2)ccc1OC1CCOCC1 [Example 106, 5-(4-((4-((1H-imidazol-1-yl)methyl)phenyl)amino)-1,3,5-triazin-2-yl)-2-((tetrahydro-2H-pyran-4-yl)oxy)benzonitrile] | > 1000 nM | 4 nM | 5 nM
19 | CC1(O)CCN(c2ccc(Nc3ncnc(-c4ccc(OC5CCOCC5)c(C#N)c4)n3)cc2)C1 (stereo not drawn) [Example 108, 5-(4-((4-(3-hydroxy-3-methylpyrrolidin-1-yl)phenyl)amino)-1,3,5-triazin-2-yl)-2-((tetrahydro-2H-pyran-4-yl)oxy)benzonitrile] | > 1000 nM | 6 nM | 3 nM
20 | Cc1cc(N2CCOCC2)ccc1Nc1ncnc(-c2ccc(OC3CCOCC3)c(C#N)c2)n1 [Example 109, 5-(4-((2-methyl-4-morpholinophenyl)amino)-1,3,5-triazin-2-yl)-2-((tetrahydro-2H-pyran-4-yl)oxy)benzonitrile] | > 1000 nM | 161 nM | 76 nM
21 | N#Cc1cc(-c2ncnc(Nc3ccc(N4CCN(C5COC5)CC4)cc3)n2)ccc1O[C@H]1CCN(C2CCOC2)C[C@H]1F (stereo partly drawn) [Example 110, 2-(((3R,4S)-3-fluoro-1-(tetrahydrofuran-3-yl)piperidin-4-yl)oxy)-5-(4-((4-(4-(oxetan-3-yl)piperazin-1-yl)phenyl)amino)-1,3,5-triazin-2-yl)benzonitrile] | 740 nM | 330 nM | 243 nM
22 | N#Cc1cc(-c2ncnc(Nc3ccc(N4CCN(C5COC5)CC4)cc3)n2)ccc1O[C@H]1CCN(C2COC2)C[C@H]1F [Example 111, 2-(((3R,4S)-3-fluoro-1-(oxetan-3-yl)piperidin-4-yl)oxy)-5-(4-((4-(4-(oxetan-3-yl)piperazin-1-yl)phenyl)amino)-1,3,5-triazin-2-yl)benzonitrile] | 602 nM | 328 nM | 146 nM
23 | N#Cc1cc(-c2ncnc(Nc3ccc(N4CCN(C5COC5)CC4)cc3)n2)ccc1OC1CCN(C(=O)[C@@H]2CCC(=O)N2)C[C@H]1F (stereo partly drawn) [Example 112, 2-(((3R)-3-fluoro-1-((S)-5-oxopyrrolidine-2-carbonyl)piperidin-4-yl)oxy)-5-(4-((4-(4-(oxetan-3-yl)piperazin-1-yl)phenyl)amino)-1,3,5-triazin-2-yl)benzonitrile] | 375 nM | 4 nM | 4 nM
24 | N#Cc1cc(-c2ncnc(Nc3ccc(N4CCN(C5COC5)CC4)cc3)n2)ccc1OC1CCN(C(=O)[C@H]2CCC(=O)N2)C[C@H]1F (stereo partly drawn) [Example 113, 2-(((3R)-3-fluoro-1-((R)-5-oxopyrrolidine-2-carbonyl)piperidin-4-yl)oxy)-5-(4-((4-(4-(oxetan-3-yl)piperazin-1-yl)phenyl)amino)-1,3,5-triazin-2-yl)benzonitrile] | 292 nM | 100 nM | 64 nM
25 | N#Cc1cc(-c2ncnc(Nc3ccc(N4CCN(C5COC5)CC4)cc3)n2)ccc1O[C@H]1CCC(=O)NC1 [Example 114, (S)-5-(4-((4-(4-(oxetan-3-yl)piperazin-1-yl)phenyl)amino)-1,3,5-triazin-2-yl)-2-((6-oxopiperidin-3-yl)oxy)benzonitrile] | 175 nM | 56 nM | 20 nM
